Laboratory results reported in ChEMBL document CHEMBL1201862, “PubChem BioAssay data set” (2004).
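Following 48 hours of exposure in 96-well plates, responses at five concentrations were used to interpolate endpoints linearly. GI50 marks 50% less growth.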 Activity calls are given as the source filed them. Rule as the data show it: active = GI50 up to about 1.1 µM and inactive = higher. Where a SMILES comes first, the peptide text is derived from it. The star is where a group is joined. Boc = CC(C)(C)OC(=O)*

Key:
Experiment in all cases: DTP human tumour cell line panel, 48 h
OVCAR-3 = tested on: OVCAR-3
NCI-H460 = tested on: NCI-H460
SK-MEL-2 = tested on: SK-MEL-2
SF-539 = tested on: SF-539
OVCAR-8 = tested on: OVCAR-8
MDA-MB-231 = tested on: MDA-MB-231
SF-295 = tested on: SF-295
OVCAR-5 = tested on: OVCAR-5
RPMI-8226 = tested on: RPMI-8226
NCI-H23 = tested on: NCI-H23
HCC 2998 = tested on: HCC 2998
A498 = tested on: A498
HCT-15 = tested on: HCT-15
BT-549 = tested on: BT-549
SNB-75 = tested on: SNB-75
UACC-257 = tested on: UACC-257
HL-60 = tested on: HL-60
ACHN = tested on: ACHN
K562 = tested on: K562
SR = tested on: SR

| SMILES | GI50 (OVCAR-3) | GI50 (NCI-H460) | GI50 (SK-MEL-2) | GI50 (SF-539) | GI50 (OVCAR-8) | GI50 (MDA-MB-231) | GI50 (SF-295) | GI50 (OVCAR-5) | GI50 (RPMI-8226) | GI50 (NCI-H23) | GI50 (HCC 2998) | GI50 (A498) | GI50 (HCT-15) [µM] | GI50 (BT-549) | GI50 (SNB-75) | GI50 (UACC-257) | GI50 (HL-60) | GI50 (ACHN) | GI50 (K562) | GI50 (SR) |
| --- | --- | --- | --- | --- | --- | --- | --- | --- | --- | --- | --- | --- | --- | --- | --- | --- | --- | --- | --- | --- |
| Nc1nc2c(c(-c3cccc(Cl)c3)n1)COC/C2=C\c1cccc(Cl)c1 | > 100 µM (inactive) | > 100 µM (inactive) | > 100 µM (inactive) | > 100 µM (inactive) | > 100 µM (inactive) | 52.7 µM (inactive) | > 100 µM (inactive) | > 100 µM (inactive) | > 100 µM (inactive) | > 100 µM (inactive) | 56.8 µM (inactive) | > 100 µM (inactive) | > 100 | > 100 µM (inactive) | 22.9 µM (inactive) | 47.2 µM (inactive) | > 100 µM (inactive) | > 100 µM (inactive) | > 100 µM (inactive) |  |
| [O-][s+]1c2c(Cc3ccccc3)c(Cc3ccccc3)c1CCc1cccc(c1)CC2 | 11.1 µM (inactive) | 13.4 µM (inactive) | 17 µM (inactive) | 18.7 µM (inactive) | 13.3 µM (inactive) | 15.9 µM (inactive) | 13.2 µM (inactive) | 15.3 µM (inactive) |  | 12.7 µM (inactive) | 14.1 µM (inactive) |  | 12.9 | 13.8 µM (inactive) | 13 µM (inactive) | 14.1 µM (inactive) | 16.9 µM (inactive) | 16.7 µM (inactive) | 11.2 µM (inactive) | 17.2 µM (inactive) |
| COc1ccc2nc3cccc([N+](=O)[O-])c3c(NCCN(C)C)c2c1 | 0.127 µM (active) | 0.0165 µM (active) | 0.127 µM (active) | 0.147 µM (active) | 0.0638 µM (active) | 0.156 µM (active) | 0.233 µM (active) | 0.173 µM (active) | 0.0318 µM (active) | 0.136 µM (active) | 0.0605 µM (active) | 0.17 µM (active) | 0.0716 | 0.0369 µM (active) | 0.159 µM (active) | 0.191 µM (active) |  | 0.0585 µM (active) | 0.0292 µM (active) |  |
| Cc1ccc(S(=O)(=O)Oc2ccc(OS(=O)(=O)c3ccc(C)cc3)c3c2C(=O)c2ccccc2C3=O)cc1 | > 100 µM (inactive) | > 100 µM (inactive) | > 100 µM (inactive) | 33 µM (inactive) | > 100 µM (inactive) | 66.7 µM (inactive) |  | > 100 µM (inactive) |  | > 100 µM (inactive) | > 100 µM (inactive) |  | > 100 | > 100 µM (inactive) | 16.8 µM (inactive) | > 100 µM (inactive) | > 100 µM (inactive) | > 100 µM (inactive) | > 100 µM (inactive) | > 100 µM (inactive) |
| O=c1[nH]nc(Cc2ccccc2)n1-n1cnnc1 | > 100 µM (inactive) |  | > 100 µM (inactive) | > 100 µM (inactive) | > 100 µM (inactive) | > 100 µM (inactive) | > 100 µM (inactive) | > 100 µM (inactive) | > 100 µM (inactive) | > 100 µM (inactive) | > 100 µM (inactive) |  | > 100 | > 100 µM (inactive) | > 100 µM (inactive) | > 100 µM (inactive) |  | > 100 µM (inactive) | > 100 µM (inactive) | > 100 µM (inactive) |
| CC(=O)CCn1c(=S)sc2ccccc21 | > 100 µM (inactive) | > 100 µM (inactive) | > 100 µM (inactive) | > 100 µM (inactive) | > 100 µM (inactive) | > 100 µM (inactive) | > 100 µM (inactive) | > 100 µM (inactive) |  | > 100 µM (inactive) | > 100 µM (inactive) |  | > 100 | > 100 µM (inactive) | > 100 µM (inactive) | > 100 µM (inactive) | 17.5 µM (inactive) | > 100 µM (inactive) |  |  |
| Cc1ccc(Oc2cc(C)ccc2P(=O)(O)O)cc1 | > 100 µM (inactive) |  | > 100 µM (inactive) | > 100 µM (inactive) | > 100 µM (inactive) | > 100 µM (inactive) | > 100 µM (inactive) |  | > 100 µM (inactive) | > 100 µM (inactive) | > 100 µM (inactive) |  | > 100 | > 100 µM (inactive) | > 100 µM (inactive) | > 100 µM (inactive) | > 100 µM (inactive) |  | > 100 µM (inactive) |  |
| COC(=O)C(Cc1c[nH]c2ccccc12)NC(=O)C(Cc1c[nH]c2ccccc12)NC(=O)C(Cc1c[nH]c2ccccc12)NC(=O)OC(C)(C)C (stereo not drawn) (Boc-Trp-Trp-Trp-OMe; configuration not given here) |  | 20.2 µM (inactive) | 17.3 µM (inactive) |  | 20.7 µM (inactive) | 30.1 µM (inactive) |  | 17.9 µM (inactive) | 27.2 µM (inactive) | 16.2 µM (inactive) | 18.6 µM (inactive) | 53.5 µM (inactive) | 19.5 | 18.1 µM (inactive) | 19.8 µM (inactive) | 32.7 µM (inactive) | 16.1 µM (inactive) | 18.1 µM (inactive) | 27 µM (inactive) |  |
